Assay results published in ChEMBL document CHEMBL4390694, “Benzofuran-isatin hybrids tethered via different length alkyl linkers and their in vitro anti-mycobacterial activities” (Bioorg Med Chem, 2019).
Converted amounts (≈) assume the structure as drawn.

Assays:
[1] = Selectivity index, ratio of CC50 for cytotoxicity against African green monkey Vero cells to MIC for antimycobacterial activity against drug-susceptible Mycobacterium tuberculosis H37Rv; assay type: toxicity, cell-based; details: read-out: Selectivity Index
[2] = system: Mycobacterium tuberculosis; experiment: Antimycobacterial activity against drug-susceptible Mycobacterium tuberculosis H37Rv assessed as complete inhibition of bacterial growth incubated for 7 days by rapid direct susceptibility test; assay type: functional; details: 168 h
[3] = Cytotoxicity against African green monkey Vero cells assessed as decrease in cell viability after 72 hrs by MTT assay; assay type: cell-based; details: chlorocebus sabaeus
[4] = Cmax in ICR mouse at 25 mg/kg, po administered as single dose and measured up to 24 hrs post dose; assay type: ADME, organism-based; design: dose 25 mg/kg, route oral; details: in vivo
[5] = Elimination half life in ICR mouse at 25 mg/kg, po administered as single dose and measured up to 24 hrs post dose; assay type: ADME, organism-based; details: in vivo, read-out: beta t1/2 (converted)
[6] = AUC (0 to infinity) in ICR mouse at 25 mg/kg, po administered as single dose and measured up to 24 hrs post dose; assay type: ADME, organism-based; design: dose 25 mg/kg, time infinity, route oral; details: in vivo
[7] = Metabolic stability in mouse liver microsomes assessed as half life; assay type: ADME, Microsome
[8] = Tmax in ICR mouse at 25 mg/kg, po administered as single dose and measured up to 24 hrs post dose; assay type: ADME, organism-based; details: in vivo

| Structure (SMILES) | selectivity ratio [1] | MIC [2] [µg/mL] | CC50 at 72 h [3] [µM] | Cmax [4] [ng/mL] | half-life [5] [h] | AUC(0-inf) [6] [ng·h/mL] | half-life [7] [h] | Tmax [8] [h] |
| --- | --- | --- | --- | --- | --- | --- | --- | --- |
| CCOC(=O)c1c(-c2ccc(OC)cc2)oc2ccc(OCCCN3C(=O)C(=O)c4cc(F)ccc43)cc12 | 512 | 0.5 (≈ 0.966 µM) | 256 | – | – | – | – | – |
| CCOC(=O)c1c(-c2ccc(F)cc2)oc2ccc(OCCCCCCN3C(=O)C(=O)c4cc(F)ccc43)cc12 | 2048 | 0.25 (≈ 0.457 µM) | 512 | – | – | – | – | – |
| CCOC(=O)c1c(-c2ccc(F)cc2)oc2ccc(OCCCN3C(=O)C(=O)c4cc(OC)ccc43)cc12 | 128 | 1 (≈ 1.93 µM) | 128 | – | – | – | – | – |
| CCOC(=O)c1c(-c2ccc(OC)cc2)oc2ccc(OCCCCCCN3C(=O)C(=O)c4cc(F)ccc43)cc12 | 1024 | 0.125 (≈ 0.223 µM) | 128 | 1220 | 2.48 | 3680 | 0.527 | 1.76 |
| NNC(=O)c1ccncc1 [ISONIAZID] | – | 0.06 (≈ 0.438 µM) | – | – | – | – | – | – |
| CCOC(=O)c1c(-c2ccc(OC)cc2)oc2ccc(OCCCCN3C(=O)C(=O)c4ccccc43)cc12 | > 2048 | 0.5 (≈ 0.974 µM) | > 1020 | – | – | – | – | – |
| CCOC(=O)c1c(-c2ccc(OC)cc2)oc2ccc(OCCCN3C(=O)C(=O)c4ccccc43)cc12 | 64 | 1 (≈ 2 µM) | 64 | – | – | – | – | – |
| CCOC(=O)c1c(-c2ccc(OC)cc2)oc2ccc(OCCCCN3C(=O)C(=O)c4cc(OC)ccc43)cc12 | 32 | 2 (≈ 3.68 µM) | 64 | – | – | – | – | – |
| CCOC(=O)c1c(-c2ccc(F)cc2)oc2ccc(OCCCN3C(=O)C(=O)c4ccccc43)cc12 | 128 | 2 (≈ 4.1 µM) | 256 | – | – | – | – | – |
| CCOC(=O)c1c(-c2ccc(F)cc2)oc2ccc(OCCCN3C(=O)C(=O)c4cc(F)ccc43)cc12 | 512 | 1 (≈ 1.98 µM) | 512 | – | – | – | – | – |
| CCOC(=O)c1c(-c2ccc(OC)cc2)oc2ccc(OCCCCCCN3C(=O)C(=O)c4ccccc43)cc12 | 1024 | 0.25 (≈ 0.462 µM) | 256 | – | – | – | – | – |
| CCOC(=O)c1c(-c2ccc(OC)cc2)oc2ccc(OCCCCCN3C(=O)C(=O)c4cc(F)ccc43)cc12 | 512 | 0.25 (≈ 0.458 µM) | 128 | – | – | – | – | – |
| CNC(=O)c1c(-c2ccc(O)cc2)oc2ccc(O)c(CN3CCCCC3)c12 | > 16400 | < 0.06 | > 1020 | 6830 | 8.59 | 31800 | > 1 | 3.12 |
| CCOC(=O)c1c(-c2ccc(F)cc2)oc2ccc(OCCCCCN3C(=O)C(=O)c4cc(OC)ccc43)cc12 | 256 | 0.5 (≈ 0.916 µM) | 128 | – | – | – | – | – |
| CO[C@H]1/C=C/O[C@@]2(C)Oc3c(C)c(O)c4c(O)c(c(/C=N/N5CCN(C)CC5)c(O)c4c3C2=O)NC(=O)/C(C)=C\C=C\[C@H](C)[C@H](O)[C@@H](C)[C@@H](O)[C@@H](C)[C@H](OC(C)=O)[C@@H]1C [RIFAMPIN] | – | 0.5 (≈ 0.608 µM) | – | – | – | – | – | – |
| CCOC(=O)c1c(-c2ccccc2)oc2ccc(OCCCN3C(=O)C(=O)c4cc(OC)ccc43)cc12 | 1024 | 0.25 (≈ 0.5 µM) | 256 | – | – | – | – | – |
